In publication PMC11839852, “Preclinical comparison of (radio)lanthanides using mass spectrometry and nuclear imaging techniques: biodistribution of lanthanide-based tumor-targeting agents and lanthanides in ionic form” (European Journal of Nuclear Medicine and Molecular Imaging, 2024):
Marks after values point to notes of the source that are not given here.

Legend:
AR42J tumor cells = test: In vitro cell uptake of lanthanide chloride salts; type: cell-based, rat
Method: (§1) A mixture of equal molar amounts of the lanthanide chloride salts (100 nM stock solutions of ^natLuCl3, ^natTbCl3, ^natGdCl3, and ^natEuCl3, diluted in saline with an adjusted pH value to 3.5‒4.0) was prepared to obtain a final concentration of 10 pmol/mL (2.5 pmol/mL per lanthanide salt) and tested with AR42J, PC-3 PIP and KB tumor cells according to the same protocol as described for the Ln-labeled biomolecules (Supplementary Material). Analogous in vitro cell uptake studies were also performed with lanthanide metal complexes of diethylenetriaminepentaacetic acid (DTPA, Sigma Aldrich Chemie, Steinheim, Germany) to obtain a final concentration of 10 pmol/mL (2.5 pmol/mL per lanthanide complex) (Supplementary Material).
(§2) Cell uptake studies were performed in triplicate in 3‒6 independent experiments and the results presented as the average ± standard deviation (SD). Data were normalized to the values measured for the ^175Lu-labeled tumor targeting agent or [^175Lu]LuCl3, which were set as 100% and zero was defined as 0%. Statistical significance of the normalized data was assessed for the comparison of the values obtained for terbium, gadolinium and europium analogues with those obtained for the lutetium counterparts by applying one-way ANOVA with the Dunnett’s post-test using GraphPad Prism software (version 8). A p-value of < 0.05 was considered statistically significant.
(§3) Methods: The same experimental setting as described for Ln-labeled biomolecules was applied to perform uptake and internalization studies with the lanthanide salts (LnCl3; Ln = ^natLu, ^natTb, ^natGd and ^natEu). The applied solution was a mixture of the four lanthanide salts yielding a final concentration of 0.4 µM. Of these mixtures, 25 μL were added to the corresponding well with tumor cells. The cells were incubated for 1 h and 4 h, respectively, at 37 °C and 5% CO2. After incubation, the tumor cells were treated as described for the Ln-labeled biomolecules and processed for the measurement with ICP-MS.

KB tumor cells = test: In vitro cell uptake of lanthanide chloride salts; type: cell-based, human; conditions: 1 h incubation
Method: as §1, §2, §3

PC-3 PIP tumor cells = test: In vitro cell uptake of lanthanide chloride salts; type: cell-based, human
Method: as §1, §2, §3

[1] = test system: non-tumor-bearing immunocompetent FVB mice; test: Biodistribution of lanthanide chloride salts LnCl3 (multiplexed ICP-MS); type: in vivo; conditions: for Tissue uptake: Blood / Tissue uptake: Bone / Tissue uptake: Brain / Tissue uptake: Heart / Tissue uptake: Intestines / Tissue uptake: Kidneys / Tissue uptake: Liver / Tissue uptake: Lung / Tissue uptake: Muscle / Tissue uptake: Pancreas / Tissue uptake: Salivary glands / Tissue uptake: Spleen / Tissue uptake: Stomach: non-tumor-bearing mice
[2] = 24 h p.i., estimated ratios (organ <0.5% ID/g)
[3] = 96 h p.i., estimated ratios (organ <0.5% ID/g)

Organ ratios: Blood-to-bone ([1]; 1 h p.i.): 0.38 ± 0.08 | Organ ratios: Blood-to-liver ([1]; 1 h p.i.): 0.19 ± 0.05 | Organ ratios: Liver-to-bone ([1]; 1 h p.i.): 2.0 ± 0.3 | Tissue uptake: Blood ([1]; 1 h p.i.): 5.0 ± 0.9 % ID/g | Tissue uptake: Bone ([1]; 1 h p.i.): 13 ± 2 % ID/g | Tissue uptake: Brain ([1]; 1 h p.i.): 1.1 ± 0.8 % ID/g | Tissue uptake: Heart ([1]; 1 h p.i.): 4.8 ± 2.2 % ID/g | Tissue uptake: Intestines ([1]; 1 h p.i.): 2.6 ± 1.0 % ID/g | Tissue uptake: Kidneys ([1]; 1 h p.i.): 8.7 ± 2.5 % ID/g | Tissue uptake: Liver ([1]; 1 h p.i.): 27 ± 3 % ID/g | Tissue uptake: Lung ([1]; 1 h p.i.): 4.8 ± 1.2 % ID/g | Tissue uptake: Muscle ([1]; 1 h p.i.): 1.6 ± 0.9 % ID/g | Tissue uptake: Pancreas ([1]; 1 h p.i.): 2.2 ± 1.0 % ID/g | Tissue uptake: Salivary glands ([1]; 1 h p.i.): 2.4 ± 1.4 % ID/g | Tissue uptake: Spleen ([1]; 1 h p.i.): 6.1 ± 1.4 % ID/g | Tissue uptake: Stomach ([1]; 1 h p.i.): 6.0 ± 2.3 % ID/g | Organ ratios: Liver-to-bone ([1]; 24 h p.i.): 1.6 ± 0.5 | Organ ratios: Blood-to-bone [1, 2]: <0.04^* | Organ ratios: Blood-to-liver [1, 2]: <0.02^* | Tissue uptake: Blood ([1]; 24 h p.i.): <0.5 % ID/g | Tissue uptake: Bone ([1]; 24 h p.i.): 15 ± 2 % ID/g | Tissue uptake: Brain ([1]; 24 h p.i.): <0.5 % ID/g | Tissue uptake: Heart ([1]; 24 h p.i.): 0.76 ± 0.10 % ID/g | Tissue uptake: Intestines ([1]; 24 h p.i.): 0.54 ± 0.05 % ID/g | Tissue uptake: Kidneys ([1]; 24 h p.i.): 3.8 ± 0.8 % ID/g | Tissue uptake: Lung ([1]; 24 h p.i.): 1.0 ± 0.1 % ID/g | Tissue uptake: Muscle ([1]; 24 h p.i.): <0.5 % ID/g | Tissue uptake: Pancreas ([1]; 24 h p.i.): <0.5 % ID/g | Tissue uptake: Salivary glands ([1]; 24 h p.i.): <0.5 % ID/g | Tissue uptake: Spleen ([1]; 24 h p.i.): 5.0 ± 1.1 % ID/g | Tissue uptake: Stomach ([1]; 24 h p.i.): 1.8 ± 0.4 % ID/g | Tissue uptake: Liver ([1]; 24 h p.i., listed as natTb): ~ 22 % ID/g | Tissue uptake: Liver ([1]; 24 h p.i., listed as terbium): 22 ± 5 % ID/g | Organ ratios: Liver-to-bone ([1]; 96 h p.i.): 0.59 ± 0.18 | Organ ratios: Blood-to-bone [1, 3]: <0.03^* | Organ ratios: Blood-to-liver [1, 3]: <0.05^* | Tissue uptake: Blood ([1]; 96 h p.i.): <0.5 % ID/g | Tissue uptake: Bone ([1]; 96 h p.i.): 19 ± 4 % ID/g | Tissue uptake: Brain ([1]; 96 h p.i.): <0.5 % ID/g | Tissue uptake: Heart ([1]; 96 h p.i.): 0.73 ± 0.05 % ID/g | Tissue uptake: Intestines ([1]; 96 h p.i.): 0.52 ± 0.01 % ID/g | Tissue uptake: Kidneys ([1]; 96 h p.i.): 2.0 ± 0.1 % ID/g | Tissue uptake: Liver ([1]; 96 h p.i.): 11 ± 1 % ID/g | Tissue uptake: Lung ([1]; 96 h p.i.): 0.91 ± 0.10 % ID/g | Tissue uptake: Muscle ([1]; 96 h p.i.): <0.5 % ID/g | Tissue uptake: Pancreas ([1]; 96 h p.i.): <0.5 % ID/g | Tissue uptake: Salivary glands ([1]; 96 h p.i.): <0.5 % ID/g | Tissue uptake: Spleen ([1]; 96 h p.i.): 3.1 ± 0.2 % ID/g | Tissue uptake: Stomach ([1]; 96 h p.i.): 2.2 ± 0.4 % ID/g
Structure (SMILES): [Cl][Tb]([Cl])[Cl] [[^159Tb]TbCl3]
Lanthanide uptake compared with [175Lu]LuCl3 (AR42J tumor cells): No significant difference | Detected amount compared with lutetium (KB tumor cells): significantly lower | Lanthanide uptake compared with [175Lu]LuCl3 (PC-3 PIP tumor cells): No significant difference
